Test results reported in patent publication US20060051295A1, “Estrogen receptor interaction with a transcription factor” (priority 2002, published 2006).

What was measured:
cRel + ER alpha = experiment: Transrepression of c-Rel induced reporters, U-2 OS co-transfected with ERα; format: cell-based, human
Description: Next was determined whether transrepression by ER is limited to particular NF-κB types, such as c-Rel or RelA, by overexpression of these NF-κB proteins in U-2 OS cells (Table 2). Again, the promoter-reporter constructs for the E-selectin, ICAM and VCAM genes were used in these experiments. Significant activation of these reporters by overexpression of c-Rel was observed. This activation was strongly and reproducibly transrepressed by both ERα and ERβ (Table 2).
Table 2. Estrogen-dependent transrepression of the promoters from E-selectin, VCAM and ICAM and a synthetic NF-κB responsive reporter, measured as the amount of luciferase activity. Transient (co-)transfections of ERα (or ERβ) and reporter were performed in U-2 OS cells. Reporter activity was induced by cellular exposure to Il-1β or by co-transfection of the NF-κB genes c-Rel or RelA. […] For detailed information on the composition of the reporters used, see appendix 1. The hyphen (-) in the table indicates the test with cells without transfected cDNA and no additives in medium; n.d. means: not determined.
For transient transfections, cells were seeded in 6-well plates (2.10^5 cells/well). After two or three days the cells were transfected with reporter, expression vectors and β-galactosidase control vector. Two different experimental settings were used. For testing transrepression of IL-1β induced promoter activity, cells were transfected with 1 μg reporter construct, 1 μg expression vector (containing either ERα, ERβ or GR), and 0.25 μg of β-galactosidase control plasmid. For testing transrepression in combination with c-Rel or ReLA overexpression, cells were transfected with 1 μg reporter construct, 1 μg expression vector (containing either ERα, ERβ or GR) and 0.1 or 1.0 μg expression vector containing c-Rel or RelA and 0.25 μg of β-galactosidase control vector. Equivalent amounts of DNA were obtained by adding the appropriate expression vector that lacks an insert. Transient transfection was performed using lipofectin reagent (Life Technologies). […] The transfected cells were incubated overnight with test compounds prior to cell lysis. Measurement of luciferase and P-galactosidase activity were performed using respectively the luciferase assay system (Promega) and Galacto-light plus (Tropix) according to the manufacturers' protocols and measured on the Victor 1420 multilabel counter, Wallac. Detection of β-galactosidase activity was used as a control for transfection efficiency.

cRel = experiment: Yeast two-hybrid cRel, no partner; format: cell-based
Description: A yeast two-hybrid assay is a cellular method to quantify the degree of interaction between two proteins. This is done by producing constructs that encode for fusion proteins of the two proteins to be studied, in this case ER and c-Rel, with either the transactivating or DNA binding part of the Gal4. The transactivating and DNA binding part of gal are separately not capable of inducing reporter activity of a gal4-responsive β-galactosidase reporter construct. Due to the interaction of the two proteins the transactivating and DNA binding parts of Gal4 will come in close proximity and as a result induction of a gal-responsive reporter will occur. More specificcally, in this embodiment of the invention the estrogen receptor is fused to the DNA binding domain (DBD) of Gal4, whereas c-Rel is fused to the activation domain (AD) of Gal4. The ER/Gal4-DBD fusion protein will bind to Gal4 response elements that are upstream of the reporter gene β-galactosidase in the yeast strain. Interaction between ER and c-Rel is compound dependent, therefore increasing concentrations of compound in the in vitro system will increase the number of ER and cRel molecules that interact, that can be measured as an increase of β-galactosidase reporter activity until saturation levels are reached. The amount of β-galactosidase reporter activity therefore is a measure for the degree of interaction between estrogen receptor and c-Rel.
Table 5. […] In this assay format, ERα (or ERβ) was fused to the DNA binding domain of GAL4 whereas c-Rel (or RelA) was fused to the activation domain of GAL4. Interaction between ER and NF-κB yields a transcriptionally active complex, that induces the LacZ reporter gene which results in quantifiable β-galactosidase activity. n.d. means: not determined.
pKCRE-ERα, pKCRE-ERβ and pNGV1-GR contain the human wild-type estrogen receptor α (ERα), ERβ or GR respectively under control of the SV40 promoter. The pCMV4-c-Rel expression vector was produced by cloning of the coding region of c-Rel into the pCMV4 vector (Andersson et al., 1989). pGL3-ELAM, pGL3-VCAM and pGL3-ICAM have been constructed based on PCR using the sequences as outlined in appendix 1. The luciferase reporter plasmid 3*NF-κB-TK was constructed by inserting three repeats of the NF-κB binding site from the ICAM promoter (van de Stolpe et al.; J. Biol Chem. 269: 6185-6192. 1994) in front of the herpes simplex virus thymidine kinase (HSV-TK) promoter. The TK promoter was cloned into the Bgl II-site of pGL3-basic (Promega). The triple repeat of NF-κB binding sites was constructed by annealing the oligonucleotide primers 5′-[…]-3′ and 5′-[…]-3′ followed by PRC amplification and subcloning in the pCR™2.1 vector. The insert was excised using HindIII, blunted with Klenow DNA polymerase and ligated into the SmaI site of pGL3-tk-luc. 4xERE-TATA Luc (plasmid nr. 460) contains four repeats of an estrogen responsive element followed by a TATA box and a luciferase gene. The pSV-β-Galactosidase (pSVβ) control vector (Promega) served as a positive control vector for monitoring transfection efficiencies of mammalian cells. The SV40 early promoter and enhancer drive transcription of the LacZ gene which encodes the β-Galactosidase enzyme. The yeast 2-hybrid constructs pGAD424-ERα, pGAD424-ERαdAB and pGAD424-ERβ were constructed by cloning respectively the human ERα, the ERα without the AB domain and the human ERβ cDNA in pGAD424. pGAD424-ERα LBD was constructed by cloning the LBD of ERα, obtained by PCR, in the EcoRI and SalI sites of pGAD424 vector. pGBT9-c-Rel was constructed by cloning the c-Rel fragment, obtained by PCR on pCMV4-c-Rel in the EcoRI and BamHI sites of pGBT9. The p65/RelA cDNA was obtained by PCR on the pCMV4-p65.

[1] = system: E-selectin (ELAM) gene expression; experiment: Rabbit atherogenic diet model, E-selectin mRNA in aorta bow (RNase protection)

## C[C@]12CC[C@@H]3c4ccc(O)cc4CC[C@H]3[C@@H]1CC[C@@H]2O [Org E2, 17β-estradiol]
cRel + ER alpha
  luciferase activity, 3*NFkB-reporter: 5140
  luciferase activity, ELAM+ reporter: 3256
  luciferase activity, ELAM− reporter: 569
  luciferase activity, ICAM reporter: 3514
  luciferase activity, VCAM reporter: 259
cRel; E2 0.0003 nM
  β-galactosidase activity: 1251
cRel; E2 0.003 nM
  β-galactosidase activity: 1135
cRel; E2 0.01 nM
  β-galactosidase activity: 1093
cRel; E2 0.03 nM
  β-galactosidase activity: 1202
cRel; E2 0.1 nM
  β-galactosidase activity: 1204
cRel; E2 0.3 nM
  β-galactosidase activity: 1202
cRel; E2 1 nM
  β-galactosidase activity: 1145
cRel; E2 3 nM
  β-galactosidase activity: 1246
cRel; E2 10 nM
  β-galactosidase activity: 1146
cRel; E2 30 nM
  β-galactosidase activity: 1411
cRel; E2 100 nM
  β-galactosidase activity: 1261
[1]; diet 2 weeks, 4 hours after 3 μg/kg s.c.
  ELAM mRNA level (RNase protection, divided by GAPDH signal): 0
[1]; diet 2 weeks, 12 hours after 3 μg/kg s.c.
  ELAM mRNA level (RNase protection, divided by GAPDH signal): 0.0003897
[1]; diet 4 weeks, 12 hours after 3 μg/kg s.c.
  ELAM mRNA level (RNase protection, divided by GAPDH signal): 0
[1]; diet 8 weeks, 4 hours after 3 μg/kg s.c.
  ELAM mRNA level (RNase protection, divided by GAPDH signal): 0.0006813
[1]; diet 18 weeks, 4 hours after 3 μg/kg s.c.
  ELAM mRNA level (RNase protection, divided by GAPDH signal): 0.002788
[1]; diet 18 weeks, 12 hours after 3 μg/kg s.c.
  ELAM mRNA level (RNase protection, divided by GAPDH signal): 0.0008307
